Results published in patent US11266655B2, “Methods and compositions for treating urea cycle disorders” (Camp4 Therapeutics Corporation, priority 2019, dated 2022).
Several values for one entry are separate records, joined by “and”; a condition that tells them apart may be missing. Equal entries are not always repeated. Where two headings read alike, the source gives them in different places.

B1: GDF2 (BMP9): member of BMP family and the TGF-B superfamily (protein, UniProt Q9UK05 320-429, looked up)
Growth/differentiation factor …: SAGAGSHCQKTSLRVNFEDIGWDSWIIAPKEYEAYECKGGCFFPLADDVTPTKHAIVQTLVHLKFPTKVGKACCVPTKLSPISVLYKDDMGVPTLKYHYEGMSVAECGCR

Legend:
[1] = test system: SLC25A15; experiment: RNA-seq of compound-treated primary human hepatocytes, SLC25A15 expression; type: cell-based; conditions: for Relative SLC25A15 level vs Untreated (±Standard Deviation): triplicate (Table 24, FIG. 16A-B)
[2] = test system: ASS1; experiment: RNA-seq of compound-treated primary human hepatocytes, ASS1 expression; type: cell-based; conditions: primary human hepatocytes; for Relative ASS1 level vs Untreated (±Standard Deviation): triplicate (Table 15, FIG. 7); for Fold change (Log 2) vs untreated, ASS1 expression: RNA-seq (Table 4)
[3] = test system: CPS1; experiment: RNA-seq of compound-treated primary human hepatocytes, CPS1 expression; type: cell-based; conditions: primary human hepatocytes; for Relative CPS1 level vs Untreated (±Standard Deviation): triplicate (Table 19, FIG. 11); for CPS1 expression, Fold change (Log 2) vs untreated: RNA-seq
[4] = test system: ARG1; experiment: RNA-seq of compound-treated primary human hepatocytes, ARG1 expression; type: cell-based; conditions: for Relative ARGI level vs Untreated (±Standard Deviation) / Fold change (Log 2) vs untreated, ARG1 expression: primary human hepatocytes; for Relative ARGI level vs Untreated (±Standard Deviation): triplicate (Table 17, FIG. 9); for Fold change (Log 2) vs untreated, ARG1 expression: RNA-seq (Table 7)
[5] = test system: NAGS; type: cell-based, human; conditions: for Relative NAGS level vs Untreated (±Standard Deviation): primary human hepatocytes, triplicate (Table 21, FIG. 13)
[6] = test system: CPS1; experiment: JAK inhibitors at 0.3 and 3 μM in primary human hepatocytes, CPS1 mRNA fold change; type: cell-based; conditions: fold change vs DMSO
Protocol: (§1) Additional small molecules that inhibit JAK1, JAK2, JAK3, or a combination of the JAK proteins were tested in primary human hepatocytes as described in Example 2. JAK inhibitors were tested in triplicate at 0.3 μM and 3 μM. The results are shown as the fold change (mRNA FC) in the mRNA levels of OTC and CPS1 genes after treatment compared to an untreated control (DMSO) and the standard deviation (SD).

[7] = test system: OTC; experiment: JAK inhibitors at 0.3 and 3 μM in primary human hepatocytes, OTC mRNA fold change; type: cell-based; conditions: fold change vs DMSO
Protocol: as §1

[8] = test system: urea cycle genes; experiment: RNA-seq of primary human hepatocytes, compounds that modulate multiple urea cycle-related genes; type: cell-based; conditions: primary human hepatocytes, RNA-seq; for Up-regulated Genes: urea cycle-related genes significantly increased (Table 10)
[9] = test system: OTC; experiment: RNA-seq of compound-treated primary human hepatocytes, OTC expression; type: cell-based; conditions: primary human hepatocytes, RNA-seq
[10] = 10 μM, primary human hepatocytes
[11] = 1 μM, primary human hepatocytes
[12] = 3 μM, primary human hepatocytes
[13] = Example 11, relative mRNA vs DMSO

Molecule | CPS1 mRNA FC ([6]; 0.3 uM) | CPS1 mRNA FC ([6]; 3 uM) | OTC mRNA FC ([7]; 0.3 uM) | OTC mRNA FC ([7]; 3 uM) | also measured
COc1cc2c(Oc3ccc(NC(=O)C4(C(=O)Nc5ccc(F)cc5)CC4)cc3F)ccnc2cc1OCCCN1CCOCC1 [Foretinib] |  |  |  |  | Relative SLC25A15 level vs Untreated (±Standard Deviation) [1, 10]: 1.97 ± 0.15; Relative ASS1 level vs Untreated (±Standard Deviation) ([2]; 10 μM): 1.82 ± 0.11; Relative CPS1 level vs Untreated (±Standard Deviation) ([3]; 3 μM): 1.37 ± 0.30; Relative CPS1 level vs Untreated (±Standard Deviation) ([3]; 10 μM): 1.75 ± 0.30; Relative ARGI level vs Untreated (±Standard Deviation) ([4]; 3 μM): 1.40 ± 0.00; Relative ARGI level vs Untreated (±Standard Deviation) ([4]; 10 μM): 1.61 ± 0.12; Relative NAGS level vs Untreated (±Standard Deviation) ([5]; 10 μM): 1.45 ± 0.38
CC[C@@](C)(Nc1ccnc(-c2c[nH]c3ncccc23)n1)C(=O)NCC(F)(F)F [Decernotinib] | 1.07 | 1.28 | 1.01 | 2.18 | 
O=C(Nc1ccc(-c2ccnc(Nc3ccc(N4CCOCC4)cc3)n2)cc1)C1CCCN1 (centres unmarked) [XL019] | 0.91 | 0.81 | 1.09 | 1.02 | 
FGF: Fibroblast Growth Factor-acidic (FGF-acidic), also known as FGF-1 |  |  |  |  | CPS1 expression, Fold change (Log 2) vs untreated [3]: 1.72 Log 2; number of urea cycle genes whose expression was significantly up-regulated [8]: three; Up-regulated Genes [8]: CPS1, OTC, ARG1; Fold change (Log 2) vs untreated, ARG1 expression [4]: 1.24 Log 2; OTC expression, Fold change (Log 2) vs untreated [9]: 0.56 Log 2
N#CC[C@H](C1CCCC1)n1cc(-c2ncnc3[nH]ccc23)cn1 [ruxolitinib] | 1.66 | 1.79 | 2.65 | 4.17 | 
Cc1cnc(Nc2ccc(OCCN3CCCC3)cc2)nc1Nc1cccc(S(=O)(=O)NC(C)(C)C)c1 [Fedratinib] | 0.93 | 0.95 | 1.09 | 1.49 | 
NC(=O)c1cnc2[nH]ccc2c1N[C@@H]1[C@@H]2CC3C[C@H]1C[C@@](O)(C3)C2 [Peficitinib] | 1.31 | 2.28 | 2.38 | 3.49 | 
O=C(Nc1nc2cccc(-c3ccc(CN4CCS(=O)(=O)CC4)cc3)n2n1)C1CC1 [GLPG0634/Filgotinib] | 1.08 | 1.56 | 1.12 | 2.11 | 
Cc1cc(Nc2cc(CN3CCOCC3)c3nc(C)c(Cc4ccc(Cl)cc4F)n3n2)n[nH]1 [LYS2784544] | 1.3 | 1.6 | 1.98 | 3.67 | 
CC(=O)NCC(=O)N1[C@@H]2CC[C@H]1c1ccc(Nc3ncc(C(F)(F)F)c(NC4CCC4)n3)cc12 [PF-3814735] |  |  |  |  | Relative SLC25A15 level vs Untreated (±Standard Deviation) [1, 11]: 1.35 ± 0.11; Relative SLC25A15 level vs Untreated (±Standard Deviation) [1, 12]: 3.06 ± 0.51; Relative SLC25A15 level vs Untreated (±Standard Deviation) [1, 10]: 2.41 ± 0.14; Increase in SLC25A15 gene expression (qualitative) [1, 13]: greatest increase; Relative ASS1 level vs Untreated (±Standard Deviation) ([2]; 10 μM): 1.56 ± 0.17; Relative CPS1 level vs Untreated (±Standard Deviation) ([3]; 3 μM): 2.25 ± 0.74; Relative ARGI level vs Untreated (±Standard Deviation) ([4]; 1 μM): 1.44 ± 0.02; Relative ARGI level vs Untreated (±Standard Deviation) ([4]; 3 μM): 2.45 ± 0.43; increase in ARG1 gene expression (Tables 17, 18, FIG. 9, 10) [4, 13]: greatest increase
CN1C/C=C/CCOc2cccc(c2)-c2ccnc(n2)Nc2cccc(c2)C1 [SB1317/TG02] | 1.05 | 1.03 | 1.05 | 0.64 | Relative SLC25A15 level vs Untreated (±Standard Deviation) ([1]; 0.3 μM, primary human hepatocytes): 1.36 ± 0.24; Relative SLC25A15 level vs Untreated (±Standard Deviation) [1, 12]: 2.70 ± 0.34; Relative SLC25A15 level vs Untreated (±Standard Deviation) [1, 10]: 2.71 ± 0.09; Relative ASS1 level vs Untreated (±Standard Deviation) ([2]; 1 μM): 1.34 ± 0.12; Relative ASS1 level vs Untreated (±Standard Deviation) ([2]; 3 μM): 1.90 ± 0.19; Relative ASS1 level vs Untreated (±Standard Deviation) ([2]; 10 μM): 1.92 ± 0.18
CCn1c(C(=O)N(C2CC2)C2CC2)cc2c3c(ncn3C)c(Nc3cc(C)n(C)n3)nc21 [BMS-911543] | 1.31 and 1.03 | 1.65 | 1.94 | 2.7 | 
EGF: Epidermal Growth Factor, a polypeptide growth factor |  |  |  |  | CPS1 expression, Fold change (Log 2) vs untreated [3]: 1.93 Log 2; number of urea cycle genes whose expression was significantly up-regulated [8]: three; Up-regulated Genes [8]: CPS1, OTC, ARG1; Fold change (Log 2) vs untreated, ARG1 expression [4]: 1.46 Log 2; OTC expression, Fold change (Log 2) vs untreated [9]: 0.64 Log 2
O=C(Nc1c[nH]nc1-c1nc2ccc(CN3CCOCC3)cc2[nH]1)NC1CC1 [AT9283] | 1.53 | 1.05 | 1.56 | 0.56 | Relative SLC25A15 level vs Untreated (±Standard Deviation) [1, 11]: 1.78 ± 0.04; Relative SLC25A15 level vs Untreated (±Standard Deviation) [1, 12]: 2.56 ± 1.37; Relative SLC25A15 level vs Untreated (±Standard Deviation) [1, 10]: 2.94 ± 0.98; Relative ASS1 level vs Untreated (±Standard Deviation) ([2]; 3 μM): 1.40 ± 0.43; Relative ASS1 level vs Untreated (±Standard Deviation) ([2]; 10 μM): 2.48 ± 0.79; Relative CPS1 level vs Untreated (±Standard Deviation) ([3]; 3 μM): 2.35 ± 0.15; Relative CPS1 level vs Untreated (±Standard Deviation) ([3]; 10 μM): 1.53 ± 0.33; Relative ARGI level vs Untreated (±Standard Deviation) ([4]; 10 μM): 1.70 ± 0.16; Relative NAGS level vs Untreated (±Standard Deviation) ([5]; 0.3 μM): 1.43 ± 0.38; Relative NAGS level vs Untreated (±Standard Deviation) ([5]; 1 μM): 1.49 ± 0.10; Relative NAGS level vs Untreated (±Standard Deviation) ([5]; 3 μM): 1.38 ± 0.07
Cc1cc(Nc2cc(CN3CCOCC3)c3nc(C)c(Cc4ccc(Cl)cc4F)n3n2)n[nH]1 [LY2784544/gandotinib] | 1.11 | 1.39 | 1.19 | 1.63 | 
N#CCC1(n2cc(-c3ncnc4[nH]ccc34)cn2)CN(C2CCN(C(=O)c3ccnc(C(F)(F)F)c3F)CC2)C1 [itacitinib] | 1.84 | 2.17 | 3.56 | 3.41 | 
CCS(=O)(=O)N1CCN(c2ccc(Nc3ncc(C(N)=O)c(NC4CC4)n3)cc2)CC1 [cerdulatinib] | 1.58 | 2.39 | 2.56 | 1.89 | 
CCc1cc(O)c(F)cc1-c1ccc2c(-c3nc4c([nH]3)CCN(C(=O)c3cnc(N5CCCCC5)cn3)C4)n[nH]c2c1 [PF-06263276] | 1.05 | 1.03 | 1.16 | 1.46 | 
C[C@]12CC[C@H]3[C@@H](CCC4=CC(=O)CC[C@@]43C)[C@@H]1CC[C@@H]2C(=O)CO [Deoxycorticosterone] |  |  |  |  | Fold change (Log 2) vs untreated, ASS1 expression [2]: 0.6 Log 2; CPS1 expression, Fold change (Log 2) vs untreated [3]: 3.79 Log 2; number of urea cycle genes whose expression was significantly up-regulated [8]: four; Up-regulated Genes [8]: CPS1, ASS1, ARG1, SLC25A15; Fold change (Log 2) vs untreated, ARG1 expression [4]: 1.37 Log 2
S=C(NCc1ccc2c(c1)OCO2)N1CCN(c2ncnc3c2oc2ccccc23)CC1 [Amuvatinib] |  |  |  |  | Fold change (Log 2) vs untreated, ASS1 expression [2]: 0.69 Log 2; Relative CPS1 level vs Untreated (±Standard Deviation) ([3]; 10 μM): 2.07 ± 0.42; number of urea cycle genes whose expression was significantly up-regulated [8]: five; Up-regulated Genes [8]: CPS1, ASS1, ASL, OTC, ARG1; Relative ARGI level vs Untreated (±Standard Deviation) ([4]; 10 μM): 1.71 ± 0.19; Fold change (Log 2) vs untreated, ARG1 expression [4]: 2.5 Log 2
CCS(=O)(=O)N1CC(CC#N)(n2cc(-c3ncnc4[nH]ccc34)cn2)C1 [Baricitinib] | 1.4 | 1.38 | 2.56 | 2.85 | 
COc1cc2ncnc(Nc3ccc(O)cc3)c2cc1OC [JANEX-1] | 0.86 | 1.01 | 0.85 | 1.1 | 
B1 |  |  |  |  | Fold change (Log 2) vs untreated, SLC25A15 expression ([1]; primary human hepatocytes, RNA-seq (Table 8)): 1.09 Log 2; Fold change (Log 2) vs untreated, ASS1 expression [2]: 1.34 Log 2; CPS1 expression, Fold change (Log 2) vs untreated [3]: 3.46 Log 2; number of urea cycle genes whose expression was significantly up-regulated [8]: five; Up-regulated Genes [8]: ASS1, CPS1, NAGS, ARG1, SLC25A15; Fold change (Log 2) vs untreated, ARG1 expression [4]: 1.79 Log 2; Fold change (Log 2) vs untreated, NAGS expression [5]: 0.63 Log 2
